{"source": "paper PMC8539346", "about": "“Synthesis and Evaluation of a Dimeric RGD Peptide as a Preliminary Study for Radiotheranostics with Radiohalogens” (Molecules, 2021)", "key": {"αvβ3 integrin [1]": {"target": "T1, αvβ3 integrin (Homo sapiens, UniProt P05106+P06756)", "T1 construct": "host or cells: U-87 MG glioblastoma cells", "experiment": "αvβ3 integrin competitive binding assay with U-87 MG cells, radioligand [^125I]c[RGDy(3-I)V]", "settings": "competitive inhibition of [^125I]c[RGDy(3-I)V] binding, mean ± SD for three independent experiments", "procedure": "The affinity of 6 and E[c(RGDfK)]2, a dimer RGD peptide without iodine, for αvβ3 integrin was determined via a competitive binding assay with U-87 MG cells. Binding of the radioligand [^125I]c[RGDy(3-I)V] to αvβ3 integrin was inhibited by 6 and E[c(RGDfK)]2 in a concentration-dependent manner.\nBinding affinities of synthesized peptides E[c(RGDfK)]2 and 6 for αvβ3 integrin were evaluated by competitive inhibition between the peptides and [^125I]c[RGDy(3-I)V], which was prepared by Fmoc solid-phase synthesis and following ^125I-labeling with chloramine-T method, to αvβ3 integrin according to a previously reported procedure. The peptides’ half maximal inhibitory concentration (IC50) values were calculated by curve fitting with nonlinear regression using GraphPad Prism 8.4.3 (GraphPad Software Inc., San Diego, CA, USA). Each data point is the average of four determinations, and IC50 values were expressed as mean ± standard deviation (SD) from three independent experiments.\nFigure 2 αvβ3 Integrin binding assay. Representative displacement curves of the competitive binding of [^125I]c[RGDy(3-I)V] to αvβ3 integrin on U-87 MG cells with E[c(RGDfK)]2 and 6. Error bars represent SD."}, "[2]": {"test_system": "U-87 MG tumor bearing mice", "settings": "mouse", "procedure": "A comparison of the biodistribution experiments in U-87 MG tumor mice between [^125I]6 and [^125I]c[RGDf(4-I)K] is shown in Figure 3 and Table S1. [^125I]6 was highly accumulated in the tumor based on the results of the in vitro assay. […] (2.93 ± 0.08% ID/g). The accumulation of [^125I]6 in the liver and intestines also tended to be higher than that of [^125I]c[RGDf(4-I)K]. Meanwhile, it is known that the radioactive accumulation in the thyroid gland and stomach is an index of deiodination of radioiodine labeled probes.\nExperiments with animals were conducted in strict accordance with the Guidelines for the Care and Use of Laboratory Animals of Kanazawa University. The experimental protocols were approved by the Committee on Animal Experimentation of Kanazawa University. The animals were housed with free access to food and water at 23 °C with a 12 h alternating light/dark schedule. We used a U-87 MG cell line because it was reported that the U-87 MG highly expresses αvβ3 integrin [26]. […] The radioactivity counts of ^125I was determined with an auto-well gamma counter (ARC-7010, Hitachi, Ltd., Tokyo, Japan) and corrected for background radiation and physical decay during counting. […]\nTable S1. Biodistribution of radioactivity after intravenous injection of […]\nExpressed as % injected dose per gram. […]\n‡ Expressed as % injected dose.\nSignificance was determined by paired Student’s t test. […]"}, "[3]": {"assay_type": "physicochemical", "procedure": "(§1) An experimental Log p value of [^125I]6 was −2.33 ± 0.04. The value was higher than that of the monomeric radioiodine-labeled RGD peptide [^125I]c[RGDf(4-I)K] (−3.04 ± 0.46) from our previous study.\nThe partition coefficient of [^125I]6 was measured as described previously. The radioactivity in each phase was measured with an auto-well gamma counter. The partition coefficient was determined by calculating the ratio of 1-octanol to the buffer and was expressed as a common logarithm (log P)."}, "[4]": {"experiment": "In vitro stability in PBS(−)", "assay_type": "physicochemical", "settings": "PBS(−) pH 7.4, 37 °C, 24 h, 37 kBq tracer in 100 µL, RP-HPLC; mean ± SD for three samples", "procedure": "An in vitro stability experiment of [^125I]6 in PBS(−) (pH 7.4) solution was performed. After incubation at 37 °C for 24 h, 90.8 ± 0.7% (mean ± SD for three samples) of its radioactivity remained intact.\nTo evaluate the stability of [^125I]6 in PBS(−), 10 µL of each tracer (37 kBq) was added to 90 µL of PBS(−) (pH 7.4), and the solutions were incubated at 37 °C for 24 h. After incubation, the samples were drawn, and the radioactivity was analyzed by RP-HPLC."}, "[5]": {"settings": "cited from earlier work", "source_text": "as §1"}, "αvβ3 integrin [6]": {"target": "T1, αvβ3 integrin", "settings": "monomer RGD peptide; cited from earlier work", "procedure": "The binding affinity of 6 for αvβ3 integrin (IC50: 1.2 ± 0.5 nM) was higher than that of c[RGDf(4-I)K] […] It was reported that IC50 values of dimeric RGD peptides in the αvβ3 integrin competitive binding assay were an order lower than those of original monomeric RGD peptides. Thus, the IC50 value of dimerizing peptide 6 was consistent with those described in previous studies."}}, "note": "Read-outs that look alike come from different tables or passages of the source.", "data": [{"compound": "N=C(N)NCCC[C@@H]1NC(=O)[C@H](CCCCNC(=O)CC[C@H](N)C(=O)NCCCC[C@@H]2NC(=O)[C@@H](Cc3ccc(I)cc3)NC(=O)[C@H](CC(=O)O)NC(=O)CNC(=O)[C@H](CCCNC(=N)N)NC2=O)NC(=O)[C@@H](Cc2ccccc2)NC(=O)[C@H](CC(=O)O)NC(=O)CNC1=O", "note": "[Compound 6, E[c(RGDfK)]{c[RGDf(4-I)K]}]", "values": [{"measurement": "IC50", "setting": "αvβ3 integrin [1]", "value": "0.0012 ± 0.0005", "unit": "µM"}]}, {"compound": "E[c(RGDfK)]{[^125I]c[RGDf(4-I)K]}2 [[^125I]6]", "values": [{"measurement": "in vivo deiodination (radioactivity in neck containing thyroid glands and stomach)", "setting": "[2]", "value": "hardly occurred"}, {"measurement": "Log p (partition coefficient)", "setting": "[3]", "value": "−2.33 ± 0.04"}, {"measurement": "radioactivity remained intact", "setting": "[4]", "value": "90.8 ± 0.7", "unit": "%"}]}, {"compound": "[^125I]c[RGDf(4-I)K]", "values": [{"measurement": "Log p (partition coefficient)", "setting": "[5]", "value": "−3.04 ± 0.46"}]}, {"compound": "c[RGDf(4-I)K]", "values": [{"measurement": "IC50", "setting": "αvβ3 integrin [6]", "value": "0.0232 ± 0.0172", "unit": "µM"}]}]}
